Biological target: T1, F508delCFTR cell surface expression in CFBE41o-F508delCFTR-HRP cells (Homo sapiens, UniProt P13569, DEL508-508)
T1 construct: fused on or other part: Horseradish peroxidase (HRP) reporter inserted in the fourth exofacial (extracellular) loop of CFTR; expression is doxycycline-inducible
Experiment: Cell Surface Expression-Horse Radish Peroxidase (CSE-HRP) Assay
Format: cell-based
Conditions: for EC50: CFBE41o-F508delCFTR-HRP cells, 18-24 hours at 33° C., 8-point curve, highest concentration 20 μM; for Maximum % activity (%): maximum at any tested concentration, normalized to on-plate positive control (3 μM)
Description: Cell Surface Expression-Horse Radish Peroxidase (CSE-HRP) Assay:
A cellular assay for measuring the F508delCFTR cell surface expression after correction with test compounds was developed in human lung derived epithelial cell line (CFBE41o-) (Veit G et al, (2012) Mol Biol Cell. 23(21): 4188-4202). This was achieved by expressing the F508delCFTR mutation along with a horseradish peroxidase (HRP) in the fourth exofacial loop and then measuring the HRP activity using luminescence readout from these cells, CFBE41o-F508delCFTR-HRP, that were incubated overnight with the test corrector compounds. Briefly, for this primary assay, the CFBE41o-F508delCFTR-HRP cells were plated in 384-well plates (Greiner Bio-one; Cat 781080) at 4,000 cells/well along with 0.5 μg/mL doxycycline to induce the F508delCFTR-HRP expression and further incubated at 37° C., 5% CO2 for 72 hours. The test compounds were then added at the required concentrations and further incubated for 18-24 hours at 33° C. The highest concentration tested was 20 μM with an 8-point concentration response curve using a 3-fold dilution. Three replicate plates were run to determine one EC50. All plates contained negative controls (dimethyl sulfoxide, DMSO) and positive controls (3 μM of 3-[(2R,4R)-4-({[1-(2,2-difluoro-1,3-benzodioxol-5-yl)cyclopropyl]carbonyl}amino)-7-methoxy-3,4-dihydro-2H-chromen-2-yl]benzoic acid) as well as on-plate concentration response of the positive control. Post incubation, the plates were washed 5× times with Dulbecco's phosphate buffered saline (DPBS), followed by the addition of the HRP substrate, luminol (50 μL), and measuring the HRP activity using luminescence readout on EnVision® Multilabel Plate Reader (Perkin Elmer; product number 2104-0010). The raw counts from the experiment are analyzed using Accelrys® Assay Explorer v3.3.
Z′ greater than 0.5 was used as passing quality control criteria for the plates.
The Z′ is defined as: 1−[3*SDPositive Control+3*SDNegative Control/Absolute(MeanPositive Control−MeanNegative Control)] wherein “SD” is standard deviation.
The % activity measured at each of the 8 test concentrations of the test compound was normalized to the on-plate positive control using the following formula: % activity=[(test compound response DMSO response)/(positive control response DMSO response)]*100
The maximum % activity achieved for the test compound at any tested concentration is presented in Table 1 along with the EC50 calculated using the following general sigmoidal curve with variable Hill slope equation (described as Model 42 in the Accelrys® Assay Explorer v3.3 software): y=(a−d)/(1+(x/c)^b)+d
General sigmoidal curve with concentration, response, top, bottom, EC50 and Hill slope.
This model describes a sigmoidal curve with an adjustable baseline, a. The equation can be used to fit curves where response is either increasing or decreasing with respect to the independent variable, “x”.
“x” is a concentration of drug under test.
“a” is the maximum response, and “d” is the minimum response
“c” is the inflection point (EC50) for the curve. That is, “y” is halfway between the lower and upper asymptotes when x=c.
“b” is the slope-factor or Hill coefficient. The sign of b is positive when the response increases with increasing dose and is negative when the response decreases with increasing dose (inhibition).

T1 sequence (P13569 with tags, fused parts or gaps DEL508-508 limits assumed): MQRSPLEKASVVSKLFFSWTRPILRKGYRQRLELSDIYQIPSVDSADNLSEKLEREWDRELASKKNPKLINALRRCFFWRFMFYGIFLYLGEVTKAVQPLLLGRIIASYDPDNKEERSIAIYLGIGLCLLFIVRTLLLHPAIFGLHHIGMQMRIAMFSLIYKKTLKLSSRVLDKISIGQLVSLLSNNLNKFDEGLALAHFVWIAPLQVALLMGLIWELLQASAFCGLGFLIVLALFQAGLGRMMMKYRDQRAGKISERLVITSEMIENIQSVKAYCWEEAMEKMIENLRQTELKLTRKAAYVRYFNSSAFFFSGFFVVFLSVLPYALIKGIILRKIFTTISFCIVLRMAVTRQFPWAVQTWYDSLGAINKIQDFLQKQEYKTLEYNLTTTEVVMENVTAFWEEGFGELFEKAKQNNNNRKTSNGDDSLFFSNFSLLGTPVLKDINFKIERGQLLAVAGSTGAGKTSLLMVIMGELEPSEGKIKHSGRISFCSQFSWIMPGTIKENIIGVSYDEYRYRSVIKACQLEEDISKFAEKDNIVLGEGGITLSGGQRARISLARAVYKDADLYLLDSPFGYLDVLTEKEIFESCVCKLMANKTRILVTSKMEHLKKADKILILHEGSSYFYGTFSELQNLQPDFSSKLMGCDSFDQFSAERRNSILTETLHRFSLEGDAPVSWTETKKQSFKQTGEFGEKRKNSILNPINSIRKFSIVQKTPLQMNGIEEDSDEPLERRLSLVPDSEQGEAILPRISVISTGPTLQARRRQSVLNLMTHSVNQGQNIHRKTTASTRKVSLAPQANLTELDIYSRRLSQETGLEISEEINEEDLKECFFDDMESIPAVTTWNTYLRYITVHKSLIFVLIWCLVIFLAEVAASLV
T1 sequence (P13569 919-1480 limits assumed, stated change not applied): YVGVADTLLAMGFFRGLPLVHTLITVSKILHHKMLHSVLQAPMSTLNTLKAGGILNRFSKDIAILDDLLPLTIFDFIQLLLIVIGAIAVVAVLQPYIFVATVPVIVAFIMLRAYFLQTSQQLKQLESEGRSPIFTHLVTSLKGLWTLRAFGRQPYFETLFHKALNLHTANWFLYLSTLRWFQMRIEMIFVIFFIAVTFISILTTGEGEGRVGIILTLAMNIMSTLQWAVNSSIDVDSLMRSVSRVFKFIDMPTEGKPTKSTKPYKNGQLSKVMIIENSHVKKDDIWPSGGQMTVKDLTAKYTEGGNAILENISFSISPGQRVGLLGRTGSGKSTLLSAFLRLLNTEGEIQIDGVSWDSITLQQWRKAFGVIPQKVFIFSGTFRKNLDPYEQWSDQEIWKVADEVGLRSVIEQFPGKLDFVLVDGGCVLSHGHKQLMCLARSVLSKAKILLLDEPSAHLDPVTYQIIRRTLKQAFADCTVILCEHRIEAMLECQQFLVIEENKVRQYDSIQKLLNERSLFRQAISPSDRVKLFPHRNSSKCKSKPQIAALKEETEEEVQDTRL

Compound | EC50 | Maximum % activity (%)
COC(=O)c1ccc([C@H]2C[C@@H](NC(=O)[C@@]3(C)COc4cc5c(cc43)OC(F)(F)O5)c3ccc(OC)cc3O2)cc1 [Example 19, methyl 4-[(2R,4R)-4-{[(7R)-2,2-difluoro-7-methyl-6,7-dihydro-2H-furo[2,3-f][1,3]benzodioxole-7-carbonyl]amino}-7-methoxy-3,4-dihydro-2H-1-benzopyran-2-yl]benzoate] | 80 nM | 130%
CC1(C(=O)Nc2cccc(N3CCC(C(=O)O)CC3)n2)COc2cc3c(cc21)OC(F)(F)O3 (stereo not shown) [Example 71, 1-{6-[(2,2-difluoro-7-methyl-6,7-dihydro-2H-furo[2,3-f][1,3]benzodioxole-7-carbonyl)amino]pyridin-2-yl}piperidine-4-carboxylic acid] | 1230 nM | 128%
CC1(C)OC[C@H](CN2CCC([C@@H]3C[C@H](NC(=O)[C@@]4(C)COc5cc6c(cc54)OC(F)(F)O6)c4ccc(OC(F)(F)F)cc4O3)CC2)O1 [Example 226, (7R)—N-[(2S,4S)-2-(1-{[(4S)-2,2-dimethyl-1,3-dioxolan-4-yl]methyl}piperidin-4-yl)-7-(trifluoromethoxy)-3,4-dihydro-2H-1-benzopyran-4-yl]-2,2-difluoro-7-methyl-6,7-dihydro-2H-furo[2,3-f][1,3]benzodioxole-7-carboxamide] | > 20000 nM | 18%
C[C@]1(C(=O)Nc2cccc(-c3cccc(C(=O)O)c3)n2)COc2cc3c(cc21)OC(F)(F)O3 [Example 73, 3-(6-{[(7R)-2,2-difluoro-7-methyl-6,7-dihydro-2H-furo[2,3-f][1,3]benzodioxole-7-carbonyl]amino}pyridin-2-yl)benzoic acid] | 2650 nM | 117%
(7R)—N-(6-{[2R)-2,3-dihydroxypropyl]amino}pyridin-2-yl)-2,2-difluoro-7-methyl-6,7-dihydro-2H-furo[2,3-f][1,3]benzodioxole-7-carboxamide [Example 92] | 1720 nM | 98%
COc1ccc2c(c1)O[C@@H](c1ccc(C(=O)NCC(C)O)cn1)C[C@H]2NC(=O)[C@@]1(C)COc2cc3c(cc21)OC(F)(F)O3 (stereo partly drawn) [Example 241, 6-[(2R,4R)-4-{[(7R)-2,2-difluoro-7-methyl-6,7-dihydro-2H-furo[2,3-f][1,3]benzodioxole-7-carbonyl]amino}-7-methoxy-3,4-dihydro-2H-1-benzopyran-2-yl]-N-(2-hydroxypropyl)pyridine-3-carboxamide] | 40 nM | 110%
C[C@]1(C(=O)N[C@@H]2C[C@H]([C@H]3CC[C@H](C(=O)N4CCOCC4CO)CC3)Oc3cc(OC(F)(F)F)ccc32)COc2cc3c(cc21)OC(F)(F)O3 (stereo partly drawn) [Example 257, (7R)-2,2-difluoro-N-[(2R,4R)-2-{trans-4-[3-(hydroxymethyl)morpholine-4-carbonyl]cyclohexyl}-7-(trifluoromethoxy)-3,4-dihydro-2H-1-benzopyran-4-yl]-7-methyl-6,7-dihydro-2H-furo[2,3-f][1,3]benzodioxole-7-carboxamide] | 70 nM | 170%

Continued, values first:

EC50 | Maximum % activity (%) | Compound
310 nM | 199% | C[C@]1(C(=O)N[C@@H]2C[C@H](C3CCN(C(=O)OCc4ccccc4)CC3)Oc3cc(OC(F)(F)F)ccc32)COc2cc3c(cc21)OC(F)(F)O3 [Example 224, benzyl 4-[(2R,4R)-4-{[(7R)-2,2-difluoro-7-methyl-6,7-dihydro-2H-furo[2,3-f][1,3]benzodioxole-7-carbonyl]amino}-7-(trifluoromethoxy)-3,4-dihydro-2H-1-benzopyran-2-yl]piperidine-1-carboxylate]
40 nM | 111% | COc1ccc2c(c1)O[C@@H](c1ccc(C(=O)N3CC(O)(CCO)C3)cn1)C[C@H]2NC(=O)[C@@]1(C)COc2cc3c(cc21)OC(F)(F)O3 [Example 239, (7R)-2,2-difluoro-N-[(2R,4R)-2-{5-[3-hydroxy-3-(2-hydroxyethyl)azetidine-1-carbonyl]pyridin-2-yl}-7-methoxy-3,4-dihydro-2H-1-benzopyran-4-yl]-7-methyl-6,7-dihydro-2H-furo[2,3-f][1,3]benzodioxole-7-carboxamide]
6630 nM | 116% | Cc1ccc(NC(=O)[C@@]2(C)COc3cc4c(cc32)OC(F)(F)O4)nc1Cl [Example 77, (7R)—N-(6-chloro-5-methylpyridin-2-yl)-2,2-difluoro-7-methyl-6,7-dihydro-2H-furo[2,3-f][1,3]benzodioxole-7-carboxamide]
18 nM | 116% | COC(=O)c1ccc([C@H]2C[C@@H](NC(=O)[C@@]3(C)COc4cc5c(cc43)OC(F)(F)O5)c3ccc(OC)cc3O2)nc1 [Example 89E, methyl 6-[(2R,4R)-4-{[(7R)-2,2-difluoro-7-methyl-6,7-dihydro-2H-furo[2,3-f][1,3]benzodioxole-7-carbonyl]amino}-7-methoxy-3,4-dihydro-2H-1-benzopyran-2-yl]pyridine-3-carboxylate]
60 nM | 132% | COc1ccc2c(c1)O[C@@H](c1ccc(C(=O)N3CCOCC3CO)cn1)C[C@H]2NC(=O)[C@@]1(C)COc2cc3c(cc21)OC(F)(F)O3 (stereo partly drawn) [Example 240, (7R)-2,2-difluoro-N-[(2R,4R)-2-{5-[3-(hydroxymethyl)morpholine-4-carbonyl]pyridin-2-yl}-7-methoxy-3,4-dihydro-2H-1-benzopyran-4-yl]-7-methyl-6,7-dihydro-2H-furo[2,3-f][1,3]benzodioxole-7-carboxamide]
4020 nM | 54% | C[C@]1(C(=O)N[C@H]2C[C@@H](C3CCN(C(=O)OCc4ccccc4)CC3)Oc3cc(OC(F)(F)F)ccc32)COc2cc3c(cc21)OC(F)(F)O3 [Example 225, benzyl 4-[(2S,4S)-4-{[(7R)-2,2-difluoro-7-methyl-6,7-dihydro-2H-furo[2,3-f][1,3]benzodioxole-7-carbonyl]amino}-7-(trifluoromethoxy)-3,4-dihydro-2H-1-benzopyran-2-yl]piperidine-1-carboxylate]
3160 nM | 116% | CCOC(=O)c1csc(-c2cccc(NC(=O)[C@@]3(C)COc4cc5c(cc43)OC(F)(F)O5)n2)c1 [Example 82, ethyl 5-(6-{[(7R)-2,2-difluoro-7-methyl-6,7-dihydro-2H-furo[2,3-f][1,3]benzodioxole-7-carbonyl]amino}pyridin-2-yl)thiophene-3-carboxylate]
310 nM | 134% | CC(C)(COCc1ccccc1)c1cc2cc(NC(=O)[C@@]3(C)COc4cc5c(cc43)OC(F)(F)O5)c(F)cc2[nH]1 [Example 204, (7R)—N-{2-[1-(benzyloxy)-2-methylpropan-2-yl]-6-fluoro-1H-indol-5-yl}-2,2-difluoro-7-methyl-6,7-dihydro-2H-furo[2,3-f][1,3]benzodioxole-7-carboxamide]
40 nM | 116% | COc1ccc2c(c1)O[C@@H](c1ccc(C(=O)NC(C)CO)cn1)C[C@H]2NC(=O)[C@@]1(C)COc2cc3c(cc21)OC(F)(F)O3 (stereo partly drawn) [Example 242, 6-[(2R,4R)-4-{[(7R)-2,2-difluoro-7-methyl-6,7-dihydro-2H-furo[2,3-f][1,3]benzodioxole-7-carbonyl]amino}-7-methoxy-3,4-dihydro-2H-1-benzopyran-2-yl]-N-(1-hydroxypropan-2-yl)pyridine-3-carboxamide]
41 nM | 145% | CCOC(=O)[C@H]1CC[C@H]([C@H]2C[C@@H](NC(=O)[C@@]3(C)COc4cc5c(cc43)OC(F)(F)O5)c3ccc(OC(F)(F)F)cc3O2)CC1 [Example 148, ethyl trans-4-[(2R,4R)-4-{[(7R)-2,2-difluoro-7-methyl-6,7-dihydro-2H-furo[2,3-f][1,3]benzodioxole-7-carbonyl]amino}-7-(trifluoromethoxy)-3,4-dihydro-2H-1-benzopyran-2-yl]cyclohexane-1-carboxylate]

— patent US9840513B2 (AbbVie S.à.r.l., priority 2015, dated 2017)
